Assay results: ChEMBL document CHEMBL5584335, “Investigating Active Site Binding of Ligands to High and Low Activity Carbonic Anhydrase Enzymes Using Native Mass Spectrometry” (J Med Chem, 2024)
Active and inactive are the calls of the source. The calls are words filed in the database; no cut-off is given here.

Experiments:
[1] = target: T1, Carbonic anhydrase 3 (Homo sapiens, UniProt P07451); assay: Binding affinity to human recombinant CA III active site expressed in Escherichia coli BL21 (DE3) pLysS cells at 18.18 uM at protein:compound ratio of 1:2 incubated for 30 mins by native mass spectrometry analysis
[2] = target: T1, Carbonic anhydrase 3; assay: Binding affinity to human recombinant CA III assessed as inhibition constant

T1 sequence (P07451 whole entry): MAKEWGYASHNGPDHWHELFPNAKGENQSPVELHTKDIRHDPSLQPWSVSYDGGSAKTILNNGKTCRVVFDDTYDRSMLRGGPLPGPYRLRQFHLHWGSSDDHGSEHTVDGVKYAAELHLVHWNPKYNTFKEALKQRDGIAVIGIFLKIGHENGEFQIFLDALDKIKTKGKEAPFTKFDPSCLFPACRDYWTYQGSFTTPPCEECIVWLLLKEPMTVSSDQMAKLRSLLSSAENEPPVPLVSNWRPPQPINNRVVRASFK

Row | SMILES | Activity [1] | Ki [2]
1 | CC1Cc2ccccc2N1NC(=O)c1ccc(Cl)c(S(N)(=O)=O)c1 (stereo unspecified) | inactive | 
2 | Cc1ccc(-c2cc(C(F)(F)F)nn2-c2ccc(S(N)(=O)=O)cc2)cc1 | inactive | 
3 | Cc1onc(-c2ccccc2)c1-c1ccc(S(N)(=O)=O)cc1 | inactive | 
4 | NS(=O)(=O)c1cc(C(=O)O)c(NCc2ccco2)cc1Cl | inactive | 
5 | NS(=O)(=O)c1ccc(N2CCCCS2(=O)=O)cc1 | inactive | 
6 | CCCCNc1cc(C(=O)O)cc(S(N)(=O)=O)c1Oc1ccccc1 [BUMETANIDE] | inactive | 3400 µM
7 | NS(=O)(=O)c1cc2c(cc1Cl)NCNS2(=O)=O [HYDROCHLOROTHIAZIDE] | inactive | 790 µM
8 | Cc1ccccc1N1C(=O)c2cc(S(N)(=O)=O)c(Cl)cc2NC1C (stereo unspecified) [METOLAZONE] | inactive | 610 µM
